Laboratory results reported in patent publication US11236055B2 (Venenum Biodesign, LLC, priority 2016, dated 2022).

Experiments:
mouse TGR5 receptor = target: T1, mouse TGR5 receptor (Mus musculus, UniProt Q80SS6); assay: Mouse TGR5 cAMP production assay (HTRF, Cisbio cAMP HiRange); format: cell-based; conditions: HEK293-EBNA cells overexpressing mouse TGR5, HTRF cAMP HiRange; coded A-D
T1 construct: expressed in transfected cells; host or cells: HEK293-EBNA (293 c18, ATCC CRL10852), Hygromycin B selection
T1 sequence (Q80SS6 1-329): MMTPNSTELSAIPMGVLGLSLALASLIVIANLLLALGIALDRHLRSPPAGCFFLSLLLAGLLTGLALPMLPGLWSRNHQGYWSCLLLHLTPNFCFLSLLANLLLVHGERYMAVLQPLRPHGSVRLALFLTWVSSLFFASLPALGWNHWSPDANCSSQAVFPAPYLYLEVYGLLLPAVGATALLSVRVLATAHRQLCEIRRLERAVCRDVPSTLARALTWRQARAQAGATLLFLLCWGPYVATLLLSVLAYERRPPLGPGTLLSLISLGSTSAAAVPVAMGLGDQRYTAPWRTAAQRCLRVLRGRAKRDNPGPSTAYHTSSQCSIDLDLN
How it was run: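 cAMP read by HTRF competition after 1 h room-temperature compound exposure of mouse TGR5-overexpressing HEK293-EBNA cells. Cells were suspended in serum-free DMEM containing 500 μM IBMX; compounds ran as 12-point half-log dilutions in duplicate; EC50 derived.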

human TGR5 receptor = target: T2, human TGR5 receptor (Homo sapiens, UniProt Q8TDU6); assay: Human TGR5 cAMP production assay; format: cell-based; conditions: human TGR5, luminescent cAMP assay; coded A-D; read-out: Human TGR5 Lum. cAMP Activity (EC50)
T2 construct: host or cells: CHO-K1 (hTGR5-CHO cells)
T2 sequence (Q8TDU6 1-330): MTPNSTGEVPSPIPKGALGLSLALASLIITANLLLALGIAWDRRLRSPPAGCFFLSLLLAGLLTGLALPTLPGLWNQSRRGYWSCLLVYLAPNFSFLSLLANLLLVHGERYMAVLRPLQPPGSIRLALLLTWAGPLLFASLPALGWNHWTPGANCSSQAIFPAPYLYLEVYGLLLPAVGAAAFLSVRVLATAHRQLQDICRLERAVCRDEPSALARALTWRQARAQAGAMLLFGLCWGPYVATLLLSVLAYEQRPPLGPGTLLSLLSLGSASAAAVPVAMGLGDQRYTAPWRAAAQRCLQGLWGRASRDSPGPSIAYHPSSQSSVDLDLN
How it was run: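 Intracellular cAMP read by luminescent enzyme-complementation (XS+) after overnight development, following 1 h room-temperature compound treatment of hTGR5-CHO-K1 cells in IBMX plus anti-cAMP antibody. Compounds tested as half-log dilution series; EC50 derived.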

Structure (SMILES)	EC50 (mouse TGR5 receptor) [nM]	EC50 (human TGR5 receptor) [nM]
CCc1cnccc1-c1cccc(C2CN(C(=O)CCC(=O)O)CCN2S(=O)(=O)c2cccc(Cl)c2C)c1 (racemic) [Compound 46, (+/−) 4-(4-((3-Chloro-2-methylphenyl)sulfonyl)-3-(3-(3-ethylpyridin-4-yl)phenyl)piperazin-1-yl)-4-oxobutanoic acid]	< 100	< 100
Cc1cnccc1-c1cccc(C(C)(C)N(CCCC(=O)NCCS(=O)(=O)O)S(=O)(=O)c2ccccc2C(F)(F)F)c1 [Compound 20AA, 2-(4-(N-(2-(3-(3-methylpyridin-4-yl)phenyl)propan-2-yl)-2-(trifluoromethyl)phenylsulfonamido)butanamido)ethanesulfonic acid]	< 100	< 100
Cc1cnccc1-c1cccc(C(C)(C)N(CCCNC(=O)NCS(=O)(=O)O)S(=O)(=O)c2cccc(Cl)c2C)c1 [Compound 29, (3-(3-((3-Chloro-2-methyl-N-(2-(3-(3-methylpyridin-4-yl)phenyl)propan-2-yl)phenyl)sulfonamide)propyl)ureido) methanesulfonic acid]	100 to 999	< 100
CCc1cnccc1-c1cccc(C(C)(C)NS(=O)(=O)c2ccccc2C(F)(F)F)c1 [Compound 5, N-(2-(3-(3-ethylpyridin-4-yl)phenyl)propan-2-yl)-2-(trifluoromethyl)benzenesulfonamide]	< 100	< 100
CCc1cnccc1-c1cccc([C@H](C)N(CCCC(=O)NCCCS(=O)(=O)O)S(=O)(=O)c2cccc(Cl)c2C)c1 [Compound 20AM, (S)-3-(4-(3-chloro-N-(1-(3-(3-ethylpyridin-4-yl)phenyl)ethyl)-2-methylphenylsulfonamido)butanamido)propane-1-sulfonic acid]	< 100	< 100
CCc1cnccc1-c1cccc([C@H](C)N(CCCC(=O)NCCS(=O)(=O)NCC(=O)O)S(=O)(=O)c2ccccc2C(F)(F)F)c1 [Compound 20BG]	< 100	< 100
Cc1cnccc1-c1cccc(C(C)(C)N(CCCC(=O)NC[C@@H](O)[C@H](O)[C@@H](O)[C@@H](O)CO)S(=O)(=O)c2cccc(Cl)c2C)c1 [Compound 20AF, 4-(3-chloro-2-methyl-N-(2-(3-(3-methylpyridin-4-yl)phenyl)propan-2-yl)phenylsulfonamido)-N-((2R,3S,4S,5S)-2,3,4,5,6-pentahydroxyhexyl)butanamide]	< 100	< 100
CCc1cnccc1-c1cccc(C(C)(C)N(CCCC(=O)NCCS(=O)(=O)O)S(=O)(=O)c2cccc(Cl)c2C)c1 [Compound 20AC, 2-(4-(3-chloro-N-(2-(3-(3-ethylpyridin-4-yl)phenyl)propan-2-yl)-2-methylphenylsulfonamido)butanamido)ethanesulfonic acid]	< 100	< 100
Cc1cnccc1-c1cccc(C(C)(C)N(CCCC(=O)NCCCS(=O)(=O)O)S(=O)(=O)c2cccc(Cl)c2C)c1 [Compound 20AD, 3-(4-(3-chloro-2-methyl-N-(2-(3-(3-methylpyridin-4-yl)phenyl)propan-2-yl)phenylsulfonamido)butanamido)propane-1-sulfonic acid]	< 100	< 100
Cc1cnccc1-c1cccc([C@H](C)N(CCCCC(=O)NCCS(=O)(=O)NCC(=O)O)S(=O)(=O)c2ccccc2C(F)(F)F)c1 [Compound 20BL, (S) 2-(4-(N-(1-(3-(3-methylpyridin-4-yl)phenyl)ethyl)-2-(trifluoromethyl)phenylsulfonamidopentanamido)ethylsulfonamido)acetic acid]	< 100	< 100
Cc1cnccc1-c1cccc(C(C)(C)N(CCCC(=O)NCCS(=O)(=O)NCC(=O)O)S(=O)(=O)c2cccc(Cl)c2C)c1 [Compound 20AW, (4-(3-chloro-2-methyl-N-(2-(3-(3-methylpyridin-4-yl)phenyl)propan-2-yl)phenylsulfonamido)-N-butanamidoethylsulfonamido)acetic acid]	< 100	< 100
CCc1cnccc1-c1cccc(C(C)(C)N(CCCC(=O)NCCS(=O)(=O)O)S(=O)(=O)c2ccccc2C(F)(F)F)c1 [Compound 20, 2-(4-(N-(2-(3-(3-ethylpyridin-4-yl)phenyl)propan-2-yl)-2-(trifluoromethyl)-phenylsulfonamido)butanamido)ethanesulfonic acid]	< 100	< 100
CCc1cnccc1-c1cccc([C@H](C)N(CCCC(=O)NC[C@@H](O)[C@H](O)[C@@H](O)[C@@H](O)CO)S(=O)(=O)c2cccc(Cl)c2C)c1 [Compound 20AN, 4-(3-chloro-N-((S)-1-(3-(3-ethylpyridin-4-yl)phenyl)ethyl)-2-methylphenylsulfonamido)-N-((2R,3S,4S,5S)-2,3,4,5,6-pentahydroxyhexyl)butanamide]	< 100	< 100
Cc1cnccc1-c1cccc(C(C)(C)N(CCCC(=O)NCS(=O)(=O)O)S(=O)(=O)c2ccccc2C(F)(F)F)c1 [Compound 20AB]	< 100	< 100
Cc1cnccc1-c1cccc([C@H](C)N(CCCC(=O)NCCS(=O)(=O)NCCCC(=O)O)S(=O)(=O)c2ccccc2C(F)(F)F)c1 [Compound 20BK]	< 100	< 100
CCc1cnccc1-c1cccc(C2CN(C(=O)CS(=O)(=O)O)CCN2S(=O)(=O)c2cccc(Cl)c2C)c1 (stereo not drawn) [Compound 49, 2-(4-((3-Chloro-2-methylphenyl)sulfonyl)-3-(3-(3-ethylpyridin-4-yl)phenyl)piperazin-1-yl)-2-oxoethanesulfonic acid]	< 100	< 100

Second part, the molecule after the results:

EC50 (mouse TGR5 receptor) [nM]	EC50 (human TGR5 receptor) [nM]	Structure (SMILES)
< 100	< 100	Cc1cnccc1-c1cccc(C(C)(C)N(CCCNC(=O)NCCS(=O)(=O)O)S(=O)(=O)c2cccc(Cl)c2C)c1 [Compound 29AA, 2-(3-(3-((3-Chloro-2-methyl-N-(2-(3-(3-methylpyridin-4-yl)phenyl)propan-2-yl)phenyl)sulfonamide)propyl)ureido)ethane-1-sulfonic acid]
< 100	< 100	Cc1cnccc1-c1cccc([C@H](C)N(CCCC(=O)NCCNS(=O)(=O)CC(=O)O)S(=O)(=O)c2cccc(Cl)c2C)c1 [Compound 26AA]
< 100	< 100	Cc1cnccc1-c1cccc(C(C)(C)N(CCCC(=O)NCC(=O)O)S(=O)(=O)c2cccc(Cl)c2C)c1 [Compound 21AB, 2-(4-(3-chloro-2-methyl-N-(2-(3-(3-methylpyridin-4-yl)phenyl)propan-2-yl)phenylsulfonamido)butanamido)acetic acid]
< 100	< 100	CCc1cnccc1-c1cccc([C@H](C)N(CCCC(=O)NCCS(=O)(=O)NCC(=O)O)S(=O)(=O)c2cccc(Cl)c2C)c1 [Compound 21AT, (S) 2-(3-(4-(3-chloro-2-methyl-N-(1-(3-(3-ethylpyridin-4-yl)phenyl)ethyl)phenylsulfonamido)butanamido)ethylsulfonamido)acetic acid]
< 100	< 100	CCc1cnccc1-c1cccc([C@H](C)N(CCCC(=O)NCCS(=O)(=O)O)S(=O)(=O)c2cccc(Cl)c2C)c1 [Compound 21AQ, (S)-2-(4-(3-chloro-N-(1-(3-(3-ethylpyridin-4-yl)phenyl)ethyl)-2-methylphenylsulfonamido)butanamido)ethanesulfonic acid]
100 to 999	< 100	Cc1cnccc1-c1cccc([C@H](C)N(CCCCNC(=O)NCCS(=O)(=O)NCC(=O)O)S(=O)(=O)c2ccccc2C(F)(F)F)c1 [Compound 28AA, (S)-2-(3-(4-(N-(1-(3-(3-methylpyridin-4-yl)phenyl)ethyl)-2-(trifluoromethyl)phenylsulfonamido)butyl)ureido)ethanesulfonamido acetic acid]
< 100	< 100	Cc1cnccc1-c1cccc([C@H](C)N(CCCC(=O)NCCS(=O)(=O)NCCC(=O)O)S(=O)(=O)c2cccc(Cl)c2C)c1 [Compound 21AL]
< 100	< 100	Cc1cnccc1-c1cccc([C@H](C)N(CCCCNC(=O)[C@@H](N)CS(=O)(=O)O)S(=O)(=O)c2ccccc2C(F)(F)F)c1 [Compound 31AC, (R)-2-amino-3-((4-(N-((S)-1-(3-(3-methylpyridin-4-yl)phenyl)ethyl)-2-(trifluoromethyl)phenylsulfonamido)butyl)amino)-3-oxopropane-1-sulfonic acid]
